35 molecules from patent publication US8802678B2, “Carbonylated (aza) cyclohexanes as dopamine D3 receptor ligands” (Bioprojet, priority 2006, dated 2014) can be followed below.

On to `N#CCCCC(=O)N[C@H]1CC[C@H](CCN2CCN(c3ccc(F)c(C(F)(F)F)c3)CC2)CC1` [Example 430, 4-Cyano-N-(4-{2-[4-(4-fluoro-3-trifluoromethylphenyl)piperazin-1-yl]ethyl}cyclohexyl)butanamide], for which the melting point – broadly, the temperature of the solid-liquid transition – worked out at 149 °C.

Consider `O=C(N[C@H]1CC[C@H](CCN2CCN(c3ccc(F)cc3)CC2)CC1)C1=CCCC1` [Example 431, Cyclopent-1-enecarboxylic acid (4-{2-[4-(4-fluorophenyl)-piperazin-1-yl]ethyl}cyclohexyl) amide], for which the melting point turned out to be 227 °C. Consider `N#CCCCC(=O)N[C@H]1CC[C@H](CCN2CCN(c3cc(C#N)cc(C(F)(F)F)c3)CC2)CC1` [Example 432, 4-Cyano-N-(4-{2-[4-(3-cyano-5-trifluoromethylphenyl)piperazin-1-yl]ethyl}cyclohexyl)butanamide], for which the melting point was 174 °C. Molecule `Cc1cc(Cl)cc(N2CCN(CC[C@H]3CC[C@H](NC(=O)CC#N)CC3)CC2)c1` [Example 437, N-(4-{2-[4-(3-Chloro-5-methylphenyl)piperazin-1-yl]ethyl}cyclohexyl)-2-cyanoacetamide] displayed a melting point of 185 °C. `Cc1cc(Cl)cc(N2CCN(CC[C@H]3CC[C@H](NC(=O)CCCC#N)CC3)CC2)c1` [Example 438, N-(4-{2-[4-(3-Chloro-5-methylphenyl)piperazin-1-yl]ethyl}cyclohexyl)-4-cyanobutanamide] gave a melting point of 165 °C. The figure for `CCOc1ccccc1N1CCN(CC[C@H]2CC[C@H](NC(=O)CCCC#N)CC2)CC1` [Example 439, 4-Cyano-N-(4-{2-[4-(2-ethoxyphenyl)piperazin-1-yl]ethyl}cyclohexyl)butanamide] is 137 °C. Molecule `Cc1ccc(F)c(N2CCN(CC[C@H]3CC[C@H](NC(=O)CCCC#N)CC3)CC2)c1` [Example 440, 4-Cyano-N-(4-{2-[4-(2-fluoro-5-methylphenyl)piperazin-1-yl]ethyl}cyclohexyl)butanamide] gave a melting point of 156 °C. `O=C(N[C@H]1CC[C@H](CCN2CCN(c3cc(F)ccc3F)CC2)CC1)C1=CCCC1` [Example 441, Cyclopent-1-enecarboxylic acid (4-{2-[4-(2,5-difluorophenyl)-piperazin-1-yl]ethyl}cyclohexyl) amide] came in with a melting point of 209 °C.

`N#CCCCC(=O)N[C@H]1CC[C@H](CCN2CCN(c3cc(F)ccc3F)CC2)CC1` [Example 442, 4-Cyano-N-(4-{2-[4-(2,5-difluorophenyl)piperazin-1-yl]ethyl}cyclohexyl)butanamide] yielded a melting point of 159 °C. The figure for `O=C(N[C@H]1CC[C@H](CCN2CCN(c3cccc(C(F)(F)F)c3F)CC2)CC1)C(F)F` [Example 443, 2,2-Difluoro-N-(4-{2-[4-(2-fluoro-3-trifluoromethylphenyl)piperazin-1-yl]ethyl}cyclohexyl)acetamide] is 156 °C. To `N#CCCCC(=O)N[C@H]1CC[C@H](CCN2CCN(c3cccc(F)c3F)CC2)CC1` [Example 445, 4-Cyano-N-(4-{2-[4-(2,3-difluorophenyl)piperazin-1-yl]ethyl}cyclohexyl)butanamide] belongs 197 °C; to `O=C(CC(F)(F)F)N[C@H]1CC[C@H](CCN2CCN(c3cccc(F)c3F)CC2)CC1` [Example 446, N-(4-{2-[4-(2,3-Difluorophenyl)piperazin-1-yl]ethyl}cyclohexyl)-3,3,3-trifluoropropanamide], 220 °C; to `O=C(N[C@H]1CC[C@H](CCN2CCN(c3cccc(F)c3F)CC2)CC1)C1=CCCC1` [Example 447, Cyclopent-1-enecarboxylic acid (4-{2-[4-(2,3-difluorophenyl)-piperazin-1-yl]ethyl}cyclohexyl) amide], 225 °C. `N#CCCCC(=O)N[C@H]1CC[C@H](CCN2CCN(c3cccc(C#N)c3)CC2)CC1` [Example 448, 4-Cyano-N-(4-{2-[4-(3-cyanophenyl)piperazin-1-yl]ethyl}cyclohexyl)butanamide]: the melting point was found to be 184 °C. The figure for `COc1c(Cl)cccc1N1CCN(CC[C@H]2CC[C@H](NC(=O)CCCC#N)CC2)CC1` [Example 449, N-(4-{2-[4-(3-Chloro-2-methoxyphenyl)piperazin-1-yl]ethyl}cyclohexyl)-4-cyanobutanamide] is 118 °C; for `N#CCC(=O)N[C@H]1CC[C@H](CCN2CCN(c3ccc(F)c(F)c3F)CC2)CC1` [Example 450, 2-Cyano-N-(4-{2-[4-(2,3,4-trifluorophenyl)piperazin-1-yl]ethyl}cyclohexyl)acetamide] it is 207 °C; for `N#CCCCC(=O)N[C@H]1CC[C@H](CCN2CCN(c3ccc(F)c(F)c3F)CC2)CC1` [Example 451, 4-Cyano-N-(4-{2-[4-(2,3,4-trifluorophenyl)piperazin-1-yl]ethyl}cyclohexyl)butanamide] it is 178 °C. To `CS(=O)(=O)c1cccc(N2CCN(CC[C@H]3CC[C@H](NC(=O)CC(F)(F)F)CC3)CC2)c1` [Example 452, 3,3,3-Trifluoro-N-(4-{2-[4-(3-methanesulfonylphenyl)piperazin-1-yl]ethyl}cyclohexyl)-propanamide] belongs 173 °C. To `N#CCC(=O)N[C@H]1CC[C@H](CCN2CCN(c3cccc4c3CCC4)CC2)CC1` [Example 456, 2-Cyano-N-{4-[2-(4-indan-4-ylpiperazin-1-yl)ethyl]cyclohexyl}acetamide] belongs 175 °C; to `N#CCCCC(=O)N[C@H]1CC[C@H](CCN2CCN(c3cccc4c3CCC4)CC2)CC1` [Example 457, 4-Cyano-N-{4-[2-(4-indan-4-ylpiperazin-1-yl)ethyl]cyclohexyl}butanamide], 157 °C. Molecule `O=C(N[C@H]1CC[C@H](CCN2CCN(c3cccc(C(F)(F)F)c3F)CC2)CC1)C1=CCCC1` [Example 458, Cyclopent-1-enecarboxylic acid (4-{2-[4-(2-fluoro-3-trifluoro-methylphenyl)piperazin-1-yl]ethyl}cyclohexyl) amide] registered a melting point of 190 °C. For the molecule `NC(=O)CCC(=O)N[C@H]1CC[C@H](CCN2CCN(c3cccc(C(F)(F)F)c3F)CC2)CC1` [Example 459, N-(4-{2-[4-(2-Fluoro-3-trifluoro-methylphenyl)piperazin-1-yl]ethyl}cyclohexyl)succinamide], the melting point is 244 °C. `N#CCCC(F)(F)C(=O)N[C@H]1CC[C@H](CCN2CCN(c3cccc(C(F)(F)F)c3F)CC2)CC1` [Example 460, 4-Cyano-2,2-difluoro-N-(4-{2-[4-(2-fluoro-3-trifluoromethyl-phenyl)piperazin-1-yl]ethyl}cyclohexyl)butanamide] had a melting point of 151 °C.

Take `CS(=O)(=O)c1cccc(N2CCN(CC[C@H]3CC[C@H](NC(=O)C(F)(F)F)CC3)CC2)c1` [Example 461, 2,2,2-Trifluoro-N-(4-{2-[4-(3-methanesulfonylphenyl)piperazin-1-yl]ethyl}cyclohexyl)acetamide]: the melting point turned out to be 132 °C. `N#CCCCC(=O)NC1CCC(CCN2CCN(c3cccc(-c4ccccc4)c3)CC2)CC1` (centres unmarked) [Example 462, N-{4-[2-(4-Biphenyl-3-ylpiperazin-1-yl)ethyl]cyclohexyl}-4-cyanobutanamide] yielded a melting point of 119 °C.

`O=C(N[C@H]1CC[C@H](CCN2CCN(c3cc(F)c(F)c(F)c3)CC2)CC1)C1=CCCC1` [Example 463, Cyclopent-1-enecarboxylic acid (4-{2-[4-(3,4,5-trifluorophenyl)piperazin-1-yl]ethyl}cyclohexyl) amide] displayed a melting point of 208 °C. The figure for `CC(=O)CN1CCC(CCN2CCN(c3ccc(C)c(C#N)c3)CC2)CC1` [Example 464, 2-Methyl-5-(4-{2-[1-(2-oxopropyl)piperidin-4-yl]ethyl}piperazin-1-yl)benzonitrile] is 107 °C; for `CCOCC(=O)N[C@H]1CC[C@H](CCN2CCN(c3cc(F)c(F)c(F)c3)CC2)CC1` [Example 465, 2-Ethoxy-N-(4-{2-[4-(3,4,5-trifluorophenyl)piperazin-1-yl]ethyl}cyclohexyl)acetamide] it is 133 °C. The figure for `O=C(N[C@H]1CC[C@H](CCN2CCN(c3cc(F)c(F)c(F)c3)CC2)CC1)C1CC=CC1` [Example 466, Cyclopent-3-enecarboxylic acid (4-{2-[4-(3,4,5-trifluorophenyl)piperazin-1-yl]ethyl}cyclohexyl) amide] is 224 °C.

As to `Cc1ccc(N2CCN(CC[C@H]3CC[C@H](NC(=O)CCCC#N)CC3)CC2)cc1` [Example 467, 4-Cyano-N-{4-[2-(4-p-tolylpiperazin-1-yl)ethyl]cyclohexyl}butanamide], the melting point stood at 189 °C. The figure for `CS(=O)(=O)c1cccc(N2CCN(CC[C@H]3CC[C@H](NC(=O)CCC(F)(F)F)CC3)CC2)c1` [Example 469, 4,4,4-Trifluoro-N-(4-{2-[4-(3-methanesulfonylphenyl)piperazin-1-yl]ethyl}cyclohexyl)butanamide] is 205 °C; for `COCCCC(=O)N[C@H]1CC[C@H](CCN2CCN(c3cccc(C(F)(F)F)c3F)CC2)CC1` [Example 470, N-(4-{2-[4-(2-Fluoro-3-trifluoromethylphenyl)piperazin-1-yl]ethyl}cyclohexyl)-4-methoxybutanamide] it is 175 °C; for `N#CCCCC(=O)N[C@H]1CC[C@H](CCN2CCN(c3ccc(Cl)cc3F)CC2)CC1` [Example 471, N-(4-{2-[4-(4-Chloro-2-fluorophenyl)piperazin-1-yl]ethyl}cyclohexyl)-4-cyanobutanamide] it is 171 °C. Take `N#CCC(=O)N[C@H]1CC[C@H](CCN2CCN(c3cc(F)c(F)cc3F)CC2)CC1` [Example 472, 2-Cyano-N-(4-{2-[4-(2,4,5-trifluorophenyl)piperazin-1-yl]ethyl}cyclohexyl)acetamide]: the melting point was found to be 188 °C. The figure for `N#CCCCC(=O)N[C@H]1CC[C@H](CCN2CCN(c3cc(F)c(F)cc3F)CC2)CC1` [Example 473, 4-Cyano-N-(4-{2-[4-(2,4,5-trifluorophenyl)piperazin-1-yl]ethyl}cyclohexyl)butanamide] is 153 °C.
